Results taken from publication PMC8891108, “Development and characterization of anti-fibrotic natural compound similars with improved effectivity” (Basic Research in Cardiology, 2022).

What was measured:
Type in all cases: cell-based
[1] = system: human cardiac fibroblasts (HCF); assay: BrdU incorporation, HCF proliferation (first screen); details: Homo sapiens, Cardiac fibroblast; HCF, 24 h treatment; read-out: Effective conc. (BrdU), EC50 by BrdU assay
Procedure: 96-well plates (TPP) were coated with 0.1% gelatine and seeded with 7500 HCFs/well. After 72 h, medium was exchanged with serial dilutions of compounds in FGM-3 + 1.6% DMSO + 1% 5-bromo-2′-deoxyuridine (BrdU, Roche, #11647229001), prepared in additional plates. After 24 h, cells were washed twice with DPBS (Gibco, #14190144) before incubation with anti-BrdU:POD (Roche, #11647229001) for 60 min (RT). Readout was performed by measurement of absorbance at 370 nm + 490 nm in a Synergy HT (BioTek) microplate reader. […] As validation, HCF were seeded as before, but treated with serial dilutions of compounds after 24 h. […] After 60 min of incubation (37 °C, in the dark), absorbance at 450 nm + 630 nm was measured maintaining 37 °C and analysed as described before.
To assess screening quality, quality acceptance criteria Z′ (Z prime), SW (signal window), S:B (signal-to-background), S:N (signal-to-noise) were determined following. Average Z′ ≥ 0.5 and SW ≥ 2 were required to accept the screening overall, whereas single plates were rejected from analysis if Z′ < 0.3 or SW < 1.

[2] = system: human cardiac fibroblasts (HCF); assay: nCounter Fibrosis Panel mRNA profiling of HCF; details: 24 h treatment
Procedure: Briefly, 100 ng/5µL isolated total RNA of HCF after 24 h treatment (RIN > 7.5 and […] > 88%) was mixed with the hybridization Master Mix and incubated at 65 °C for 20 h before loading on a nCounter® FLEX (Department of Pathology, Hannover Medical School, Germany). All run files (.RCC) were compiled into a single experiment using the nSolver analysis software. […] Reference genes for normalization were determined by nSolver using all samples (ACAD9, ARMH3, CNOT10, GUSB, MTMR14, NOL7, NUBP1, PGK1, PPIA, RPLP0, see supplemental Fig. 4e, f). We then used the Advanced analysis plugin (v2.0.115) including LOT as confounder variable and BY adjusted p value < 0.05 for identification of central deregulated pathways. Additionally, normalized counts were further analysed with GraphPad Prism using multiple unpaired t tests with FDR ≤ 5% after BKY adjustment and log2 |FC| ≥ 1.

[3] = system: human cardiac fibroblasts (HCF); assay: TaqMan Array Human MicroRNA Cards, miRNA deregulation in HCF
Procedure: PCR amplification of array cards was performed as instructed. After quality control of all real-time qPCRs, cT values were exported and all runs were merged into a single excel file. Recommended baseline correction using relative thresholds to correct for varying reconstitution rates of different Taqman probes was not performed. Low-expressed miRNAs with cT > 32 in more than 1 replicate per treatment were excluded from analysis, before samples were normalized to column mean. Multiple unpaired t tests were performed using GraphPad Prism, deregulations were accepted as discoveries if FDR ≤ 1% (using BKY adjustment). As miRNA identifiers were based on miRbase v14, we converted them to the latest v22 for further analysis using miRBaseConverter. 747 sequences could be converted correctly, while the remaining miRNAs were removed from miRbase due to incorrect annotation (e.g. the sequences of hsa-miR-886-3p and hsa-miR-886-5p are part of VTRNA2-1 [44]) or no evidence of human expression.

[4] = system: human living myocardial slices; assay: Ex vivo human living myocardial slices, qPCR gene expression; details: 48 h
Source text: Myocardial slices were generated from human left ventricular heart specimens taken from failing hearts at the time of transplantation. Tissue was obtained from the Clinic for Cardiac, Thoracic, Transplant and Vascular Surgery at the Hannover Medical School (MHH), Hannover, Germany. Patients provided informed consent to the scientific use of the explanted tissue.
The preparation and culture of myocardial slices has been described before. Briefly, human heart specimens were sliced into 300 µm thick slices using a vibrating microtome (Campden Instruments, #7000smz-2) while in ice-cold 30 mM 2,3-butanedione monoxime + 1 mM D-glucose + 10 mM HEPES + 6 mM KCl + 140 mM NaCl + 1 mM MgCl2 + 1.8 mM CaCl2 (cardioplegic Tyrode’s solution), before being trimmed into approx. 7 × 7 mm pieces of aligned muscle fibres.
After 48 h in culture, myocardial slices were frozen in liquid nitrogen and stored at −80 °C for further gene expression analysis.
A mix of forward and reverse primer pairs (10 µM, Eurofins) or 10 × Quantitect Primer Assay (Qiagen, #249900) was used for mRNA. To measure miRNA, RNA was reverse-transcribed using the miRNA TaqMan MicroRNA Reverse Transcription Kit (Applied Biosystems, #4366597) with specific miRNA RT primers (ThermoFisher, #4427975). cDNA was diluted 1:3 with dH2O before qPCR with Absolute Blue qPCR Mix (Abgene, #AB-4136/B) and the specific Taqman probes (ThermoFisher, #4427975). Runs were performed in ViiA7 (Applied Biosystems) or QuantStudio 7 Flex (Applied Biosystems). Real-time qPCR data were analysed as described elsewhere.

[5] = mean of DMSO minus mean of treatment

In the case of `O[C@H]1[C@H]2c3cc4c(cc3CN3CCC(=C[C@@H]1O)[C@H]23)OCO4` [Lycorine, lycorine], the EC50 [1] is reported as 2800 nM, the “deregulation of fibrosis panel genes / pathways” value [2] is reported as “less deregulation (fold-change) compared to the other treatments” and the “Mean of treatment, hsa-miR-30e-3p-000422” value ([3]; cT normalized to column mean) is reported as -5.454. The “Mean of treatment, hsa-miR-16-000391” value ([3]; cT normalized to column mean) was -6.115, the “Mean of treatment, hsa-miR-28-3p-002446” value ([3]; cT normalized to column mean) was -2.622 and the “Mean of treatment, hsa-miR-29a-002112” value ([3]; cT normalized to column mean) was -7.899. For the same molecule, the “Mean of treatment, hsa-miR-30a-3p-000416” value ([3]; cT normalized to column mean) was -5.962, the “Mean of treatment, hsa-miR-31#-002113” value ([3]; cT normalized to column mean) was -6.203 and the “Mean of treatment, hsa-miR-31-002279” value ([3]; cT normalized to column mean) was -7.455. For the same molecule, the “Mean of treatment, hsa-miR-34a#-002316” value ([3]; cT normalized to column mean) was -2.58, the “Mean of treatment, hsa-miR-125a-5p-002198” value ([3]; cT normalized to column mean) was -3.201 and the “Mean of treatment, hsa-miR-132-000457” value ([3]; cT normalized to column mean) was -3.872. For the same molecule, the “Mean of treatment, hsa-miR-140-3p-002234” value ([3]; cT normalized to column mean) was -1.119, the “Mean of treatment, hsa-miR-151-3p-002254” value ([3]; cT normalized to column mean) was -5.192 and the “Mean of treatment, hsa-miR-155-002623” value ([3]; cT normalized to column mean) was -3.701. For the same molecule, the “Mean of treatment, hsa-miR-186-002285” value ([3]; cT normalized to column mean) was -4.072, the “Mean of treatment, hsa-miR-191-002299” value ([3]; cT normalized to column mean) was -6.639 and the “Mean of treatment, hsa-miR-193b-002367” value ([3]; cT normalized to column mean) was -4.73. For the same molecule, the “Mean of treatment, hsa-miR-222#-002097” value ([3]; cT normalized to column mean) was -3.599, the “Mean of treatment, hsa-miR-222-002276” value ([3]; cT normalized to column mean) was -9.167 and the “Mean of treatment, hsa-miR-331-000545” value ([3]; cT normalized to column mean) was -4.63. The “Mean of treatment, hsa-miR-339-3p-002184” value ([3]; cT normalized to column mean) was -0.6811, the “Mean of treatment, hsa-miR-342-3p-002260” value ([3]; cT normalized to column mean) was -3.089 and the “Mean of treatment, hsa-miR-376a-000565” value ([3]; cT normalized to column mean) was -1.759. The “Mean of treatment, hsa-miR-376c-002122” value ([3]; cT normalized to column mean) was -3.539, the “Mean of treatment, hsa-miR-409-3p-002332” value ([3]; cT normalized to column mean) was -4.891 and the “Mean of treatment, hsa-miR-625#-002432” value ([3]; cT normalized to column mean) was -4.373. The “Mean of treatment, hsa-miR-1274B-002884” value ([3]; cT normalized to column mean) was -9.621, the “Difference / ΔCT, hsa-miR-30e-3p-000422” value [3, 5] was 0.9633 and the “Difference / ΔCT, hsa-miR-16-000391” value [3, 5] was 0.8517. The “Difference / ΔCT, hsa-miR-28-3p-002446” value [3, 5] was 0.8307, the “Difference / ΔCT, hsa-miR-29a-002112” value [3, 5] was 0.8647 and the “Difference / ΔCT, hsa-miR-30a-3p-000416” value [3, 5] was 0.8856. For the same molecule, the “Difference / ΔCT, hsa-miR-31#-002113” value [3, 5] was 0.5519, the “Difference / ΔCT, hsa-miR-31-002279” value [3, 5] was 0.598 and the “Difference / ΔCT, hsa-miR-34a#-002316” value [3, 5] was 0.8439. For the same molecule, the “Difference / ΔCT, hsa-miR-125a-5p-002198” value [3, 5] was 0.6283, the “Difference / ΔCT, hsa-miR-132-000457” value [3, 5] was 1.328 and the “Difference / ΔCT, hsa-miR-140-3p-002234” value [3, 5] was 0.7567. For the same molecule, the “Difference / ΔCT, hsa-miR-151-3p-002254” value [3, 5] was 0.604, the “Difference / ΔCT, hsa-miR-155-002623” value [3, 5] was 1.386 and the “Difference / ΔCT, hsa-miR-186-002285” value [3, 5] was 1.039. For the same molecule, the “Difference / ΔCT, hsa-miR-191-002299” value [3, 5] was 0.8243, the “Difference / ΔCT, hsa-miR-193b-002367” value [3, 5] was 0.5576 and the “Difference / ΔCT, hsa-miR-222#-002097” value [3, 5] was 1.599. For the same molecule, the “Difference / ΔCT, hsa-miR-222-002276” value [3, 5] was 0.8654, the “Difference / ΔCT, hsa-miR-331-000545” value [3, 5] was 0.6606 and the “Difference / ΔCT, hsa-miR-339-3p-002184” value [3, 5] was 0.7187. For the same molecule, the “Difference / ΔCT, hsa-miR-342-3p-002260” value [3, 5] was 0.7149, the “Difference / ΔCT, hsa-miR-376a-000565” value [3, 5] was 1.019 and the “Difference / ΔCT, hsa-miR-376c-002122” value [3, 5] was 0.5396. For the same molecule, the “Difference / ΔCT, hsa-miR-409-3p-002332” value [3, 5] was 0.9354, the “Difference / ΔCT, hsa-miR-625#-002432” value [3, 5] was 0.6889 and the “Difference / ΔCT, hsa-miR-1274B-002884” value [3, 5] was -0.4297. For the same molecule, the “FAP expression (qPCR)” value [4] was “not” and the “MMP2 expression (qPCR)” value [4] was “not”.
